{
  "source": "patent US8575100B2",
  "about": "“Tc and Re labeled radioactive glycosylated octreotide derivatives” (Mallinckrodt LLC, priority 2001, dated 2013)",
  "key": {"AR42J-cells (SSTR2) [1]": {"test_system": "AR42J-cells (SSTR2)", "assay": "Externalization and recycling of radioligands in AR42J cells", "format": "cell-based, rat", "conditions": "for extracellularly located radioactivity compared to the experiment without recycling: externalization experiment that allowed recycling; for externalisation from the cell (in words): upon incubation up to 120 min", "experimental": "(§1) The cells were incubated with the radioligand for up to 120 min (n=3). At each time point the activity in the supernatant, the surface-bound and the internalized activity were determined and normalized to the values of TOC. Externalization and recycling was studied after an incubation time of 120 min over 2 h. Specificity of ligand binding was studied in a competition experiment with […] Sandostatin.\n(§2) Internalisation and externalisation experiments were performed using the sst2 expressing rat pancreatic tumor cell line AR42J. Free, surface bound and internalised radioactivity were determined after 10, 30, 60, 90 and 120 min. of incubation with the radioligands at 37° C. In the externalisation experiments allowing ligand recycling, the fraction of radioactivity released into the supernatant during 10, 30, 60, 90 and 120 min as well as the radioactivity remaining in the cells were determined. We also measured the activity released during 5 subsequent incubations (10, 20 and 3×30 min) with intermediate changes of the medium (limited recycling).\nAs described for the internalization studies, the six-well plates were incubated at 37° C. with fresh culture medium (RPMI 1640, 1% BSA, 2 mM L-Glutamine) for 1H prior to the experiment. Then app. […] After incubating for 120 min. at 37° C., the supernatant was collected and the cells were washed once with 1 ml of cold medium. The supernatant was pooled with the supernatant of the previous step. To collect externalized radioactivity the cells were then incubated at 37° C. with 1 ml of culture medium. After 10, 30, 60, 90 and 120 minutes respectively, the supernatant was collected, the cells were washed once with 1 ml of culture medium and the supernatant was again pooled with the supernatant of the previous step. Then the cells were extracted with 1 ml of 1 N NaOH and the wells were rinsed once with PBS. This pooled fraction represents radioligand still located in the cell. The activity in the NaOH-fraction as well as in the supernatant- and in the externalisation-fractions was counted in a γ-Counter.\nAs described for the previous experiment, a six-well plate was incubated for 120 min. at 37° C. with radioligand. The supernatant was collected and the cells were washed once with 1 ml of cold medium. The supernatant was pooled with the supernatant of the previous step. To collect externalized radioactivity the cells were then incubated at 37° C. with 1 ml of culture medium. After 10 min. the supernatant was collected and the cells were again incubated with 1 ml of culture medium for another 20 min. at 37° C. The supernatant was collected and the cells were three more times incubated with 1 ml of culture medium for 30 min. at 37° C. Then the cells were extracted with 1 ml of 1 N NaOH and the wells were rinsed once with PBS. This pooled fraction represents radioligand still located in the cell. The activity in the NaOH-fraction as well as in the externalisation-fractions at all time points was counted in a […]."}, "AR42J-cells (SSTR2) [2]": {"test_system": "AR42J-cells (SSTR2)", "assay": "Internalization of radioligands in AR42J cells", "conditions": "for internalised ligand / internalisation rate (% internalised ligand/% surface-bound ligand): 60 min incubation; for internalised ligand: normalized to the reference [125I]TOC; for internalisation rate (% internalised ligand/% surface-bound ligand): ratio normalized to the reference [125I]TOC", "experimental": "as §1, §2\nCoupling of glucose (Gluc) and maltotriose (Mtr) to N^α-Lys of N^ε-(Boc-His(Boc))Lys^0-Tyr^3-Lys^5(Dde)-octreotide (protected K(H)TOC) and final deprotection yielded Gluc- and Mtr-K(H)TOC. ^99mTc-labeling was carried out using [^99mTc(H2O)3(CO)3]^+. […] Biodistribution was evaluated in nude mice bearing AR42J tumors at 0.5 and 2 h p.i (n=4).\nN^ε(Boc-His(Boc))Lys^0-Tyr^3-Lys^5 (Dde)-octreotide (protected K(H)TOC) was synthesized using standard Fmoc-chemistry. […] Tc-99m-labeling was carried out using the organometallic aquaion [^99mTc (H2O)3 (CO)3]^+(1). Internalization and externalization studies (<120 min) were performed for both compounds using the SSTR2 expressing cell line AR42J. […] Biodistribution of intravenously administered [^99mTc]Gluc-K(H)TOC and [^99mTc]Mtr-K(H)TOC was evaluated in nude mice bearing AR42J rat pancreatic tumors at 30 and 120 min p.i(n=4).\nSix-well plates with a cell population of 8×10^5-5×10^6 AR42J-cells per well were incubated at 37° C. with fresh culture medium (RPMI 1640, 1% BSA, 2 mM L-glutamine) for 1 h prior to the experiment. Then app. […] After incubating for 10, 30, 60, 90 or 120 min. at 37° C. the supernatant was collected and the cells were washed once with 1 ml of cold medium. The supernatant was pooled with the supernatant of the previous step. To remove receptor bound (acid releasable) radioactivity the cells were incubated at 37° C. with 1 ml of 0.02 M NaOAc (acid wash). After 10 min. the supernatant was collected, the cells were washed once with 1 ml of 0.02 M NaOAc and the supernatant was again pooled with the supernatant of the previous step. Then the cells were extracted with 1 ml of 1 N NaOH and the wells were rinsed once with PBS. This pooled fraction represents internalized radioligand. The activity in the NaOH-fraction as well as in the supernatant- and in the acid wash-fractions was counted in a γ-Counter."}, "[3]": {"assay": "Determination of lipophilicity (octanol/PBS)", "format": "physicochemical", "conditions": "octanol/PBS pH 7.4; radiolabeled peptide; n=6", "experimental": "To a solution of app. 300000 cpm of radiolabeled peptide in […] of PBS (pH 7.4), […] of octanol were added (n=6). Vials were vortexed for 3 min and then centrifuged at 15000 rpm for 6 min. Aliquots of […] of PBS and octanol were measured in a γ-Counter."}},
  "data": [
    {"substance": "[^125I]Tyr^3-octreotide [[^125I]TOC]", "values": [
      {"measurement": "extracellularly located radioactivity compared to the experiment without recycling", "setting": "AR42J-cells (SSTR2) [1]", "value": "about 80%"},
      {"measurement": "externalisation from the cell (in words)", "setting": "AR42J-cells (SSTR2) [1]", "value": "rapidly externalised"},
      {"measurement": "decrease of intracellular activity", "setting": "AR42J-cells (SSTR2) [1]; within 2 h (120 min)", "value": "about 50%"},
      {"measurement": "internalised ligand", "setting": "AR42J-cells (SSTR2) [2]", "value": 100},
      {"measurement": "internalisation rate (% internalised ligand/% surface-bound ligand)", "setting": "AR42J-cells (SSTR2) [2]", "value": 100}
    ]},
    {"substance": "[^125I]Tyr^3-octreotate [[^125I]TOCA]", "values": [
      {"measurement": "extracellularly located radioactivity compared to the experiment without recycling", "setting": "AR42J-cells (SSTR2) [1]; printed as a fraction", "value": "about ⅔"},
      {"measurement": "surface availability (% surface-bound ligand/% free radioligand)", "setting": "AR42J-cells (SSTR2) [2]", "value": "182 ± 6"},
      {"measurement": "internalised ligand", "setting": "AR42J-cells (SSTR2) [2]", "value": "204 ± 7"},
      {"measurement": "internalisation rate (% internalised ligand/% surface-bound ligand)", "setting": "AR42J-cells (SSTR2) [2]", "value": "140 ± 8"},
      {"measurement": "amount of internalized ligand [% internalized TOC]", "setting": "AR42J-cells (SSTR2) [2]; after 2 h of incubation, normalized to TOC", "value": 154, "unit": "%"},
      {"measurement": "internalization rate (internalized/surface bound act.) increase", "setting": "AR42J-cells (SSTR2) [2]; compared to TOC", "value": 1.4, "unit": "fold"},
      {"measurement": "surface concentration (availability on the cell surface) increased by a factor compared to TOC", "setting": "AR42J-cells (SSTR2) [2]; compared to TOC", "value": 2.1}
    ]},
    {"substance": "(1-deoxy-D-fructosyl)-Lys^0Nε-His)-Tyr^3-octreotide [S1-Lys^0(His)TOC]", "values": [
      {"measurement": "log Pow", "setting": "[3]", "value": "log Pow = −0.673 ± 0.064"}
    ]},
    {"substance": "Na-(1-deoxy-D-fructosyl)-Lys^0(Nε-His [^99mTc (H2O)(CO)3]+)-Tyr^3-octreotide [[^99mTc]Gluc-K^0(H)TOC]", "values": [
      {"measurement": "externalisation from the cell (in words)", "setting": "AR42J-cells (SSTR2) [1]", "value": "remains trapped within the cell up to 120 min"},
      {"measurement": "externalisation from the cell (in words)", "setting": "AR42J-cells (SSTR2) [1]; listed as [^99mTc]Gluc-K(H)TOC", "value": "almost stable up to 2h"},
      {"measurement": "retention in the cell under recycling conditions", "setting": "AR42J-cells (SSTR2) [1]; within 120 min, recycling allowed", "value": "nearly quantitative retention"},
      {"measurement": "internalised ligand", "setting": "AR42J-cells (SSTR2) [2]", "value": "234 ± 24"},
      {"measurement": "internalisation rate (% internalised ligand/% surface-bound ligand)", "setting": "AR42J-cells (SSTR2) [2]", "value": "171 ± 29"},
      {"measurement": "increase of internalisation by a factor compared to the reference [125I]TOC", "setting": "AR42J-cells (SSTR2) [2]; Example 2, time not given", "value": "2.3±0.8"},
      {"measurement": "intracellular activity levels, times higher than [125I]TOC", "setting": "AR42J-cells (SSTR2) [2]; at 2 h (120 min)", "value": "2.3±0.2", "unit": "times"}
    ]}
  ]
}
